One experiment has as its target T1, VEGFR-2 (Homo sapiens, UniProt P35968).
T1 construct: The kinase domain of the enzyme was purified to homogeneity from a baculovirus expression system; made in house
Nature of the experiment: VEGFR-2 substrate phosphorylation assay. In kind it is biochemical.

Experiment [1] relates to HUVEC cells. Nature of the experiment: HUVEC BrdU incorporation, VEGF stimulation. In kind it is cell-based. The following applies: Homo sapiens, 20 ng/ml VEGF, 72 hrs, read-out: Inhibition of BrdU incorporation in HUVEC cells, VEGF stimulation, IC50. On the technique in general: Dividing cells build labelled thymidine or BrdU into new DNA.
Text: (§1) An assay to measure this effect involves measurement of the inhibition of bromo-deoxy uridine (BrdU) incorporation (evidence of DNA synthesis) in human umbilical vein endothelial cells (HUVECs).
(§2) HUVEC cells and EGM (Endothelial cell growth medium) were purchased from Clonetics (San Diego, CA). VEGF and bFGF were purchased from Genzyme. M199 medium (Gibco BRL) with BSA (Sigma) was used for cell culture in Type I collagen coated plates (Becton Dickinson). The degree of BrdU incorporation was measured using a commercial colorimetric ELISA assay from Boehringer Mannheim.
(§3) HUVECs were plated at a density of 2500 cells per well in M199 medium containing 5% FBS (Hyclone) in a Type-1 Collagen coated plate. The plate was incubated at 37° C. overnight. The medium was removed by aspiration, and test compounds were added to each well in a volume of 0.1 ml per well in serum-free M199 medium. […] The plate was incubated for 30 min at 37° C. Another 0.1 ml of serum-free M199 medium containing BSA and VEGF (or bFGF) was added to give a final concentration of 0.1% BSA and 20 ng/ml VEGF (0.3 ng/ml bFGF). The plate was incubated at 37° C. for 72 hrs. BrdU was added to each well after the first 48 hrs to give a concentration of 10 micomolar. The colorimetric ELISA assay was performed according to manufacturer's instructions, with detection by absorbance reading at 450 nm.
Another experiment deals with T2, Tie-2 (Homo sapiens, UniProt Q02763).
T2 construct: The kinase domain of the enzyme was purified to homogeneity from a baculovirus expression system; made in house
T2 sequence (Q02763 824-1096 limits assumed, species assumed): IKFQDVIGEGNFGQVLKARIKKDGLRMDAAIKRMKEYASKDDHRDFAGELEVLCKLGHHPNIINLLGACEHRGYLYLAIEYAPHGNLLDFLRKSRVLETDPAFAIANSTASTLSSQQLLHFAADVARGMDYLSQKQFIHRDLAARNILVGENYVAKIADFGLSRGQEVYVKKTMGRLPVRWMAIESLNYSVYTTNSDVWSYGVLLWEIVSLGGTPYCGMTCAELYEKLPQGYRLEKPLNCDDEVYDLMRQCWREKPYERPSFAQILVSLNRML
Put plainly: Tie-2 substrate phosphorylation assay. In kind it is biochemical.

The test system of experiment [2] is HUVEC cells. Nature of the experiment: HUVEC BrdU incorporation, bFGF stimulation. In kind it is cell-based. Conditions: Homo sapiens, 0.3 ng/ml bFGF, 72 hrs, read-out: Inhibition of BrdU incorporation in HUVEC cells, BFGF Stimulation, IC50.
Text: as §1, §2, §3
The target in another experiment is T3, CDK2 (Homo sapiens, UniProt P24941).
T3 construct: made in house
Nature of the experiment: CDK2 cyclin dependent protein kinase assay. In kind it is biochemical. The following applies: read-out: CDK2 kinase inhibition IC50. The procedure: Cyclin dependent protein kinase assays utilized the peptides Biotin-aminohexyl-[…] and Biotin-aminohexyl-[…]-NH2 as phosphoryl group acceptors. CDK1 and CDK2 were both expressed utilizing a baculovirus expression system and were partially purified to comprise 20-80% of total protein, with no detectable competing reactions present. Typically, assays were performed by incubating either enzyme (0.2-10 nM), with and without inhibitor, one of the two peptide substrates ([…]), [γ-^32P]ATP ([…]), and 10-20 mM Mg^2+ for periods of time generally within the range 10-120 min. Reactions were terminated with 0.2-2 volumes of either 20% acetic acid or 50-100 mM EDTA buffered to pH 7 (substrate consumption<20%). The buffer employed in enzyme assays was either 30 mM HEPES 7.4 containing 0.15 M NaCl and 5% DMSO, the buffer 50 mM MOPS 7.0 containing 0.15 M NaCl and 5% DMSO, or the buffer 100 mM HEPES pH 7.5 containing 0.1 mg/mL BSA and 5% DMSO. Inhibitors were diluted in 100% DMSO prior to addition into the assay. Detection of peptide phosphorylation was accomplished by scintillation counting following either collection of peptide onto phosphocellulose filters (for reactions stopped with acetic acid), collection of peptide in wells of 96 well plates coated with Streptavidin (Pierce) (reactions were stopped with EDTA), or addition of Avidin coated Scintillant impregnated beads (Scintillation Proximity Assays from Amersham, reactions were stopped with EDTA).

In the next experiment the target is T4, c-fms (Homo sapiens, UniProt P07333).
T4 construct: The c-fms intracellular domain was expressed from a baculovirus expression system, as an amino-terminal GST fusion protein; GST (N); made in house
T4 sequence (P07333 539-972 limits assumed): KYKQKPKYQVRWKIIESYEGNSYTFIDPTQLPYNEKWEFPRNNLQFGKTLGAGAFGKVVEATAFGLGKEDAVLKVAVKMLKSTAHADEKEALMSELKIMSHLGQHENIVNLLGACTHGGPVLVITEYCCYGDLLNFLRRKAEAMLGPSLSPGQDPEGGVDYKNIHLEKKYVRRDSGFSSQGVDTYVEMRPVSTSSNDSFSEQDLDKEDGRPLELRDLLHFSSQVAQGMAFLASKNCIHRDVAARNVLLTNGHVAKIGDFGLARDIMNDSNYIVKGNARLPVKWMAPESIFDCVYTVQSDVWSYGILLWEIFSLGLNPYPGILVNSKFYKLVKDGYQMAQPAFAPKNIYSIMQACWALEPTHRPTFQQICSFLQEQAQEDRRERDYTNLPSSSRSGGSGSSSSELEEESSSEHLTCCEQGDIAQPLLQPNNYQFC
Nature of the experiment: c-fms protein kinase assay. Conditions: read-out: c-fms kinase inhibition IC50. In kind it is biochemical. On the procedure: c-fms protein kinase assays utilized the peptide substrate, biotin-EAl[…]-NH2, as the phosphoryl group acceptor. The c-fms intracellular domain was expressed from a baculovirus expression system, as an amino-terminal GST fusion protein, and purified to homogeneity using Glutathione agarose from Sigma Chemical Co. Maximum activation of the enzyme was achieved by preactivation at room temperature for 120 min in the presence of 100 μM ATP and 15 mM MgCl2. This enzyme stock was diluted to 150 nM prior to using in the assay. Typically assays were performed in white, opaque, 96-well plates in a 45 ul assay volume including 15 ul 6% DMSO, with or without compounds, 15 ul of the preactivated, diluted enzyme, and 15 ul of a substrate mixture. Reactions contained 50 mM HEPES, pH 7.5, 1.7 μM ATP, 15 mM MgCl2, […] peptide, 2.5 μM DTT, 50 mM NaCl and 0.15 uCi/assay [^32P]ATP. The controls were reactions in the presence (negative controls) or absence (positive controls) of 50 mM EDTA. Reactions were allowed to proceed for 90 min at room temperature. The reaction products were quantified using Scintillation Proximity technolgy. The reactions were quenched by the addition of 200 ul of a solution containing 0.3 mg streptavidin SPA beads from Amersham, 50 mM EDTA, 0.1% TX-100, 50 uM ATP, in PBS, pH7.2 (phosphate buffered solution). Plates were sealed and counted in a Packard Topcount scintillation counter. IC50 values were obtained by fitting raw data to the equation y=Vmax*(1−(x/(k+x))).

The mark [3] stands for this setting: read-out: VEGFR2 kinase inhibition IC50.
Setting [4] is: read-out: Tie-2 kinase inhibition IC50.

Each structure is given as a SMILES string. pIC50: −log10 of the molar value. Like-named read-outs stand apart in the source and are kept apart here.

T1 sequence (P35968 834-1162 limits assumed, species assumed): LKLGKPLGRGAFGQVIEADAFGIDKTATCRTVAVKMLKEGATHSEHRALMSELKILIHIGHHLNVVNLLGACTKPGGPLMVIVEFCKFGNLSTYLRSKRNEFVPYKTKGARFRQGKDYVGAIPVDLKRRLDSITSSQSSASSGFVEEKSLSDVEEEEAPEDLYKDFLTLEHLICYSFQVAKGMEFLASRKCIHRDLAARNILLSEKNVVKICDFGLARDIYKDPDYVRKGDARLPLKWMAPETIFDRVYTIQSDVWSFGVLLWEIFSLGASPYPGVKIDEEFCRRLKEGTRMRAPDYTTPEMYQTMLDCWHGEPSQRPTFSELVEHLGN
Experimental for Tie-2: The peptide substrate used in the Tie-2 assay was biotin-aminohexyl-[sequence]amide. The kinase domain of the enzyme was purified to homogeneity from a baculovirus expression system. The enzyme was diluted to 10 nM into a 60 μl reaction containing 100 mM HEPES, pH 7.5, 500 μM ATP, 10 mM MgCl2, 2 μM peptide, 1 mM DTT, 0.05 mg/ml BSA, and an inhibitor at varying concentrations. The controls were reactions in the presence (negative controls) or absence (positive controls) of 50 mM EDTA. Reactions were incubated for 30 min at room temperature, and then quenched by stopped by 80 μl, of 0.15 M EDTA. […] The neutravidin plates were then washed with water for 5 times. Europium conjugated anti-phosphotyrosine antibody, (EG & G Wallac, #CR04-100) (1 mg/ml) was diluted 1:10,000 in 1%BSA-0.05% Tween 20-TBS, and 150 μl of the diluted antibody was added to each well of the neutravidin plate, so the phosphorylated peptide was bound with the Europium labelled antibody. After another 30-60 min incubation at room temperature, the plates were washed again with water for 5 times. 150 ul of Enhancemant solution was then added to each well, dissociating Eu^3+ from solid phase bound antibodies to form a homogeneous and highly fluorescent Eu-(2-NTA)3(TOPO)2-3 micellar chelate solution.
The kinase activity of all wells was calculated as %S, the percentage of the fluorescent counts vs. positive controls after substraction of negative controls, as in eq.
Plots of compound concentration versus %S were constructed.
%S=%Smax*(1−(X/(K+X)))+Y2 (2)
Experimental for VEGFR-2: Substrate phosphorylation assays were carried out as follows:
The kinase domain of the enzyme was purified to homogeneity from a baculovirus expression system. The enzyme was preactivated on ice for 15 min in the presence of 100 μM ATP and 20 mM MgCl2, and stored at −80° C. until needed for assay. The activated enzyme was diluted to 0.4 nM into a 60 μl reaction containing 100 mM HEPES, pH 7.5, 5 μM ATP, 10 mM MgCl2, 5 μM peptide, 0.1 mM DTT, 0.05 mg/ml BSA, and an inhibitor at varying concentrations. The controls were reactions in the presence (negative controls) or absence (positive controls) of 50 mM EDTA. Reactions were incubated for 30 min at room temperature, and then quenched by the addition of EDTA to 60 mM in 210 μl . The quenched samples (190 μl) were transferred to a neutravidin-coated plate (Pierce) and incubated at room temperature for 40 min to allow biotinylated peptide to bind to the neutravidin. The unbound components of the reaction were removed by washing with a plate washer, then 200 μl HRP-PY20 anti-phosphotyrosine antibody conjugate was added to each well. After incubation for 40 min, the plate was washed to remove any unbound anitbody. A HRP substrate, K-blue (Neogen) was added and the reaction was quenched with Red Stop (Neogen) after 20 min. The absorbance of the wells was read at A650 in a plate reader. IC50 values were obtained by fitting raw data to A650=VMAX*(1−[I]/IC50+[I])))+b, where b is background.

Regarding `CCN(CC)CCS(=O)(=O)c1ccc(N/C=C2\C(=O)Nc3ccc4ncccc4c32)cc1` [Example 72, 1-[(Z)-(4-{[2-(Diethylamino)ethyl]sulfonyl}anilino)methylidene]-1H-pyrrolo[3,2-f]quinolin-2(3H)-one], the pIC50 against VEGFR-2 is 8.00 to 9.00; with HUVEC cells [1], 6.30 to 8.00; at Tie-2, less than 7.00; in the experiment on HUVEC cells [2] it was 6.30 to 8.00.

Take `Cc1cc(=O)[nH]n1-c1ccc(N/C=C2\C(=O)Nc3ccc4ncccc4c32)cc1` [Example 66, 1-{(Z)-[4-(5-Methyl-3-oxo-2,3-dihydro-1H-pyrazol-1-yl)anilino]methylidene}-1H-pyrrolo[3,2-f]quinolin-2(3H)-one]: the pIC50 on VEGFR-2 (setting [3]) was 8.00 to 9.00; in the experiment with HUVEC cells [1], 6.00 to 6.22; on Tie-2 (setting [4]), less than 7.00; with HUVEC cells [2], less than 5.30.

As to `Cc1cc(=O)[nH]n1-c1ccc(N/C=C2\C(=O)Nc3ccc4ncsc4c32)cc1` [Example 55, 8-{(Z)-[4-(5-Methyl-3-oxo-2,3-dihydro-1H-pyrazol-1-yl)anilino]methylidene}-6H-[1,3]thiazolo[5,4-e]indol-7-one], the pIC50 on CDK2 is 7.30 to 7.96; on VEGFR-2 (setting [3]) it was 8.00 to 9.00; on c-fms it was less than 7.00; with HUVEC cells [1], 5.30 to 5.96; at Tie-2 (setting [4]), less than 7.00; with HUVEC cells [2], less than 5.30.

As for `CC(=O)N(C)c1ccc(N/C=C2\C(=O)Nc3ccc4ncsc4c32)cc1` [Example 58, N-Methyl-N-(4-{(Z)-[(7-oxo-6,7-dihydro-8H-[1,3]thiazolo[5,4-e]indol-8-ylidene)methyl]amino}phenyl)acetamide], the pIC50 is 7.30 to 7.96 at VEGFR-2 (setting [3]), 6.30 to 8.00 in the experiment on HUVEC cells [1], less than 7.00 on Tie-2 (setting [4]) and 5.30 to 5.96 in the experiment on HUVEC cells [2].

`O=C1Nc2ccc3ncccc3c2/C1=C/Nc1ccc(Cc2ccncc2)cc1` [Example 30, 1-{(Z)-[4-(4-Pyridinylmethyl)anilino]methylidene}-1,3-dihydro-2H-pyrrolo[3,2-f]quinolin-2-one]: the pIC50 is 7.30 to 7.96 at CDK2; 7.30 to 7.96 on VEGFR-2 (setting [3]); less than 7.00 at c-fms; 6.30 to 8.00 in the experiment on HUVEC cells [1]; less than 7.00 on Tie-2 (setting [4]); 5.30 to 5.96 in the experiment with HUVEC cells [2].

Consider `NC(=O)c1ccc(N/C=C2\C(=O)Nc3ccc4ncsc4c32)cc1` [Example 24, 4-{[(Z)-(7-Oxo-6,7-dihydro-8H-[1,3]thiazolo[5,4-e]indol-8-ylidene)methyl]amino}benzamide], for which the pIC50 is 7.00 to 7.29 at CDK2; 7.30 to 7.96 against VEGFR-2; less than 7.00 at c-fms; 6.30 to 8.00 in the experiment on HUVEC cells [1]; less than 7.00 on Tie-2 (setting [4]); less than 5.30 with HUVEC cells [2].

As for `CCC1(c2ccc(N/C=C3\C(=O)Nc4ccc5ncsc5c43)cc2)CCC(=O)NC1=O` (stereo not drawn) [Example 48, 3-Ethyl-3-(4-{(Z)-[(7-oxo-6,7dihydro-8H-[1,3]thiazolo[5,4-e]indol-8-ylidene)methyl]amino}phenyl)-2,6-piperidinedione], the pIC50 was 8.00 to 9.00 at VEGFR-2 (setting [3]); less than 7.00 at c-fms; 6.30 to 8.00 in the experiment with HUVEC cells [1]; less than 7.00 on Tie-2 (setting [4]); 6.00 to 6.22 in the experiment on HUVEC cells [2].

For `CCC1(c2ccc(N/C=C3\C(=O)Nc4ccc5ncccc5c43)cc2)CCC(=O)NC1=O` (stereo not drawn) [Example 63, 3-Ethyl-3-(4-{(Z)-[(2-oxo-2,3dihydro-1H-pyrrolo[3,2-f]quinolin-1-ylidene)methyl]amino}phenyl)-2,6-piperidinedione], the pIC50 on VEGFR-2 (setting [3]) is 8.00 to 9.00; with HUVEC cells [1], 6.30 to 8.00; on Tie-2 (setting [4]) it was less than 7.00; in the experiment with HUVEC cells [2], 6.00 to 6.22.

`CCN(CC)CCS(=O)(=O)c1ccc(N/C=C2\C(=O)Nc3ccc4ncsc4c32)cc1` [Example 71, 8-[(Z)-(4-{[2-(Diethylamino)ethyl]sulfonyl}anilino)methylidene]-6H-[1,3]thiazolo[5,4-e]indol-7-one]: the pIC50 at VEGFR-2 (setting [3]) was 7.30 to 7.96; in the experiment with HUVEC cells [1], 6.30 to 8.00; at Tie-2 (setting [4]), less than 7.00; with HUVEC cells [2] it was 6.30 to 8.00.

As to `O=C1Nc2ccc3ncccc3c2/C1=C/Nc1ccc(CCO)cc1` [Example 32, 1-{(Z)-[4-(2-Hydroxyethyl)anilino]methylidene}-1,3-dihydro-2H-pyrrolo[3,2-f]quinolin-2-one], the pIC50 on CDK2 was 7.00 to 7.29; at VEGFR-2 (setting [3]), 7.30 to 7.96; in the experiment on HUVEC cells [1] it was 6.30 to 8.00; on Tie-2 (setting [4]), less than 7.00; in the experiment on HUVEC cells [2] it was 5.30 to 5.96.

Turning to `O=C1Nc2ccc3ncccc3c2/C1=C/Nc1ccc(N2CCOCC2)cc1` [Example 29, 1-{(Z)-[4-(4-Morpholinyl)anilino]methylidene}-1,3-dihydro-2H-pyrrolo[3,2-f]quinolin-2-one], the pIC50 was less than 7.00 on CDK2; 7.30 to 7.96 on VEGFR-2 (setting [3]); less than 7.00 on c-fms; 6.30 to 8.00 with HUVEC cells [1]; less than 7.00 at Tie-2 (setting [4]); less than 5.30 with HUVEC cells [2].

These data come from US6350747B1, “3-(anilinomethylene) oxindoles” (Glaxo Wellcome Inc., priority 1999, dated 2002).
